# Experimental data as given in EP0238198A2, “Method of modifying the lipid structure function and expression of cell membranes and pharmaceutical compositions for use therein” (Habib, Nagy Adly, priority 1986, dated 1987).
# Entries after “also recorded” stand apart in the source; their conditions may differ.
# How the values were obtained:
# malignant cells = assay: tumour development in animals implanted with malignant cells; type: in vivo
# [1] = system: three cancer cell lines from bladder, testis and hepatoma (liver cancer); assay: clonogenic assay with three cancer cell lines; type: cell-based; parameters: inhibition of cell division: dose or concentration left out as unconfirmed
# Method: In vitro studies have been conducted using a clonogenic assay utilising three cancer cell lines from bladder, testis and hepatoma (liver cancer), incubating the cells for two weeks with saturated fatty acids. The control cells were incubated without any addition. The control cells grew during this time period and formed multiple colonies, as was expected.
# D23 Rat hepatoma = assay: tumour cell colony inhibition test (clonogenic assay); type: cell-based; parameters: inhibition of colony formation: dose or concentration left out as unconfirmed; conditions: for Mean no colonies ± SE: 5 days, medium control 41.8±3.5
# Method: (§1) Cells from rat mammary carcinoma (Sp 22), primary rat fibroblasts (from alveolar tissue) and four rat hepatoma cell lines (D23, D261, D262A and D262B) were studied.
# (§2) The method used for rat cells was as follows: 200 cells were plated per dish in 1 ml 'Eagles' methionine enriched medium (MEM) + 10% newborn calf serum (NBCS) in 30 mm culture dishes and incubated for four hours at 37°C. All became firmly adherent during this initial incubation. […] To control dishes 1 ml of MEM + NBCS was added, or 1 ml of MEM + NBCS + 1% ethanol. The dishes were incubated for 5 days. Medium was then removed, and the cell colonies were rinsed with 0.9% W/V NaCl solution and fixed for 15 minutes with methanol. Cell colonies were stained with 1% aqueous crystal violet and the dishes were allowed to dry.
# D261 Rat hepatoma = assay: as above; type: cell-based; conditions: for Mean no colonies ± SE: 5 days, medium control 33.0±5.1
# Method: as §1
# as §2, with “incubation. […] Dilutions containing 20 µg/ml, […], 200 ng/ml and 2 ng/ml were prepared, 1 ml of each dilution was added to four dishes of cells, the final concentration being half the concentration of the material added.” for “incubation.”
# D262B Rat hepatoma [2] = assay: as above; type: cell-based; conditions: for Mean no colonies ± SE: 5 days, medium control 37.0± 4.0
# Method: as §1
# as §2, with “incubation. […] Dilutions containing 20 µg/ml, […], 200 ng/ml and 2 ng/ml were prepared, 1 ml of each dilution was added to four dishes of cells, the final concentration being half the concentration of the material added.” for “incubation.”
# [3] = system: Sp22 Rat mammary carcinoma; assay: as above; type: cell-based; conditions: for Mean no colonies ± SE: 5 days, medium control 61.0±6
# Method: as §1
# as §2, with “incubation. […] Dilutions containing 20 µg/ml, […], 200 ng/ml and 2 ng/ml were prepared, 1 ml of each dilution was added to four dishes of cells, the final concentration being half the concentration of the material added.” for “incubation.”
# D262A Rat hepatoma = assay: as above; type: cell-based; parameters: inhibition of colony formation: dose or concentration left out as unconfirmed; conditions: for Mean no colonies ± SE: 5 days, medium control 245.0±11.9
# Method: as §1
# as §2, with “incubation. […] Dilutions containing 20 µg/ml, […], 200 ng/ml and 2 ng/ml were prepared, 1 ml of each dilution was added to four dishes of cells, the final concentration being half the concentration of the material added.” for “incubation.”
# [4] = system: 833K (non-seminomatous testicular germ cell tumour); assay: as above; type: cell-based, human
# Method: as §1
# (§3) The human tumour cell lines were investigated as follows: 500 exponentially-growing RTl12 (transitional cell carcinoma of the bladder) cells or two hundred 833K (non-seminomatous testicuLar.germ cell tumour) cells were plated in 5 cm dishes in RPMI1640 medium supplemented with 5% foetal calf serum and 2 mM 1-glutamine. […] Following a further 14 days incubation colonies were fixed, stained and counted. Colony-forming efficiency of the treated cells was expressed as a proportion of that in the controls. The experiments were repeated three times to permit statistical analysis.
# [5] = system: RT112 (transitional cell carcinoma of the bladder); assay: as above; type: cell-based, human
# Method: as §1, §3
# [6] = system: human embryonic lung fibroblasts; assay: cell growth / cytotoxicity in the HSV2 host cell cultures (cell counting); type: cell-based; conditions: stearic acid 100 micromolar
# D262B Rat hepatoma [7] = assay: tumour cell colony inhibition test (clonogenic assay); type: cell-based
# [8] = Rattus norvegicus, 120 h, read-out: % colony formation relative to medium control
# [9] = Homo sapiens, 833K, 336 h, read-out: Colony-forming ability (± standard error)
# [10] = summary of Table 3, dose-related response
# [11] = Homo sapiens, RT-112, 336 h, read-out: Colony-forming ability (± standard error)
structure (smiles),measurement,setting,value
"CCCCCCCCCCCCCCCCCC(=O)O [stearic acid, octadecanoic acid]",development of tumours,malignant cells,inhibits the development of tumours
same,cell division (colony formation),"[1]; incubation for two weeks, inhibition related to dose",failed to divide
same,inhibition of cell division,[1]; two weeks,complete inhibition of cell division
same,inhibition of colony formation,D23 Rat hepatoma,significant inhibition of colony formation
same,activity at 0.01 µg/mL,D23 Rat hepatoma; [8],101%
same,activity at 0.1 µg/mL,D23 Rat hepatoma; [8],88.5%
same,activity at 1 µg/mL,D23 Rat hepatoma; [8],67%
same,activity at 10 µg/mL,D23 Rat hepatoma; [8],67%
same,activity at 50 µg/mL,D23 Rat hepatoma; [8],23%
same,Mean no colonies ± SE,D23 Rat hepatoma; stearic acid 10ng/ml,42.3±1.6
same,Mean no colonies ± SE,D23 Rat hepatoma; stearic acid 100 ng/ml,37.0±1.5
same,Mean no colonies ± SE,D23 Rat hepatoma; stearic acid 1μg/ml,28.0±1.5
same,Mean no colonies ± SE,D23 Rat hepatoma; stearic acid 10 μg/ml,28.0±2.9
same,Mean no colonies ± SE,D23 Rat hepatoma; stearic acid 50 μg/ml,10.0±2.6
same,activity at 1 µg/mL,D261 Rat hepatoma; [8],64.5%
same,activity at 10 µg/mL,D261 Rat hepatoma; [8],54.5%
same,activity at 50 µg/mL,D261 Rat hepatoma; [8],18.1%
same,inhibition of colony formation,D261 Rat hepatoma; dose of 10 µg/ml,significant inhibition of colony formation
same,Mean no colonies ± SE,D261 Rat hepatoma; stearic acid 1μg/ml,21.0±3.0
same,Mean no colonies ± SE,D261 Rat hepatoma; stearic acid 10 μg/ml,18.0±1.5
same,Mean no colonies ± SE,D261 Rat hepatoma; stearic acid 50 μg/ml,6.0±3.0
same,activity at 0.1 µg/mL,D262B Rat hepatoma [2]; [8],111%
same,activity at 1 µg/mL,D262B Rat hepatoma [2]; [8],83.8%
same,activity at 10 µg/mL,D262B Rat hepatoma [2]; [8],67.6%
same,activity at 50 µg/mL,D262B Rat hepatoma [2]; [8],48.6%
same,inhibition of colony formation,D262B Rat hepatoma [2]; dose of 10 µg/ml,significant inhibition of colony formation
same,Mean no colonies ± SE,D262B Rat hepatoma [2]; stearic acid 100 ng/ml,41.0± 1.8
same,Mean no colonies ± SE,D262B Rat hepatoma [2]; stearic acid 1μg/ml,31.0± 5.8
same,Mean no colonies ± SE,D262B Rat hepatoma [2]; stearic acid 10 μg/ml,25.0± 2.8
same,Mean no colonies ± SE,D262B Rat hepatoma [2]; stearic acid 50 μg/ml,18.0± 4.5
same,activity at 0.001 µg/mL,[3]; [8],83%
same,activity at 0.01 µg/mL,[3]; [8],91%
same,activity at 0.1 µg/mL,[3]; [8],86%
same,activity at 1 µg/mL,[3]; [8],93%
same,activity at 10 µg/mL,[3]; [8],96%
same,activity at 50 µg/mL,[3]; [8],84%
same,Mean no colonies ± SE,[3]; stearic acid 1ng/ml,54.0±10
same,Mean no colonies ± SE,[3]; stearic acid 10 ng/ml,55.7±3
same,Mean no colonies ± SE,[3]; stearic acid 100 ng/ml,52.5±6
same,Mean no colonies ± SE,[3]; stearic acid 1µg/ml,56.7±3
same,Mean no colonies ± SE,[3]; stearic acid 10 µg/ml,58.7±1
same,Mean no colonies ± SE,[3]; stearic acid 50 µg/ml,51.2±6
same,inhibition of colony development,[3]; summary of Table 2,failed to inhibit
same,inhibition of colony formation,D262A Rat hepatoma,significant inhibition of colony formation
same,activity at 0.01 µg/mL,D262A Rat hepatoma; [8],88%
same,activity at 0.1 µg/mL,D262A Rat hepatoma; [8],101%
same,activity at 1 µg/mL,D262A Rat hepatoma; [8],83.2%
same,activity at 10 µg/mL,D262A Rat hepatoma; [8],74.7%
same,activity at 50 µg/mL,D262A Rat hepatoma; [8],32.4%
same,Mean no colonies ± SE,D262A Rat hepatoma; stearic acid 10ng/ml,216.0± 8.8
same,Mean no colonies ± SE,D262A Rat hepatoma; stearic acid 100 ng/ml,247.8± 8.3
same,Mean no colonies ± SE,D262A Rat hepatoma; stearic acid 1μg/ml,203.8±18.1
same,Mean no colonies ± SE,D262A Rat hepatoma; stearic acid 10 μg/ml,190.3±13.6
same,Mean no colonies ± SE,D262A Rat hepatoma; stearic acid 50 μg/ml,79.3± 7.1
same,activity at 1 µg/mL,[4]; [9],81.5%
same,activity at 2 µg/mL,[4]; [9],70.4%
same,activity at 4 µg/mL,[4]; [9],27.5%
same,activity at 6 µg/mL,[4]; [9],0.9%
same,activity at 8 µg/mL,[4]; [9],0%
same,activity at 10 µg/mL,[4]; [9],0%
same,inhibition of colony formation,[4]; [10],inhibited colony formation
same,activity at 1 µg/mL,[5]; [11],92%
same,activity at 2 µg/mL,[5]; [11],86%
same,activity at 4 µg/mL,[5]; [11],45%
same,activity at 6 µg/mL,[5]; [11],4.6%
same,activity at 8 µg/mL,[5]; [11],0.3%
same,activity at 10 µg/mL,[5]; [11],0%
same,inhibition of colony formation,[5]; [10],inhibited colony formation
same,inhibition of cell division / cell growth,[6],inhibits cell division; also recorded: (+) = some inhibition of cell growth at this concentration of fatty acid supplementation
same,activity at 0.01 µg/mL,D262B Rat hepatoma [7]; [8],109%
same,Mean no colonies ± SE,"D262B Rat hepatoma [7]; stearic acid 10ng/ml, 5 days, medium control 37.0± 4.0",40.3± 1.8
